Seven molecules from EP0368175A1, “3S,7S-3-(Morpholinocarbonyl)-5-(2-chlorphenyl)-7,10-dimethyl-3,4-dihydro-2H,7H-cyclopenta[4,5]thieno[3,2-f][1,2,4]triazolo[4,3-a][1,4]diazepine” (BOEHRINGER INGELHEIM KG, priority 1988, dated 1990) can be followed below.

The target in the assay is T1, PAF-Rezeptor (Homo sapiens, UniProt P25105).
T1 construct: endogenous in cells; host or cells: intact human platelets from blood of healthy donors, purified on Sepharose CL-2B
The assay is described as follows: [^3H]PAF receptor binding on vital human platelets. On the procedure:
[^3H]PAF-Rezeptor-Bindung an vitalen humanen Blutplättchen
Bestimmt wird die konkurrierende Wechselwirkung von Prüfsubstanzen (hier PAF-Antagonisten) mit der bekannten Wechselwirkung des Radioliganden [^3H]PAF zum gleichen Rezeptor.
Die Bindungsstudien wurden an vitalem menschlichen Thrombozyten vorgenommen. Blutproben von gesunden Spendern wurden mit ACD-Puffer verdünnt und zentrifugiert (15 Min., 160 x g). Das blättchenreiche Plasma wird durch Chromatographie an Sepharose CL-2B [Zum Eluieren: HEPES-Puffer, pH 7,4 20° C] gereinigt.
Definierte Mengen [z.B. 800 µl] der Blättchensuspension wurden 90 Min. bei Raumtemperatur inkubiert, d.h. vermischt mit: • a) einer […] [^3H]PAF-Lösung, verdünnt mit Puffer. • b) mit einer 30 p molaren [^3H] PAF-Lösung, die gleichzeitig eine u.-molare (nicht markierte) PAF-Lösung enthält, • c) mit der 30 pmolaren [^3H]PAF-Lösung und den Lösungen der Prüfsubstanzen (unterschiedliche Konzentrationen) • a) Dient zur Ermittlung der totalen Bindung, • b) Dient zur Ermittlung der unspezifischen Bindung.
Die Reaktion wurde durch Vakuumfiltration abgestoppt. Die Filter mit den Blutplättchen werden mit Scintilationsflüssigkeit versetzt und die verbliebene Radioaktivität in einem Counter gemessen. Die spezifische Bindung ergibt sich aus totaler Bindung minus unspezifischer Bindung. Man bestimmt entweder die ICso-Werte (d.h. jene Konzentration der Prüfsubstanz, die 50 % des Radioliganden - hier [^3H] PAF - vom Rezeptor verdrängt), und gibt diese an. Oder errechnet hieraus die Ki-Werte. Dies kann computerunterstützt durch ein Iterationsverfahren der Bindungskurven geschehen. ICso- bzw. Ki-Werte sind ein Maß für die Rezeptoraffinität der Testsubstanz. Kleinere Werte zeigen die höhere Affinität an.

The mark [1] stands for this setting: four separated isomers of Example 9d, read-out: [^3H]PAF-Bindung (Ki).

Where two headings read alike, the source gives them in different places.

T1 sequence (P25105 whole entry): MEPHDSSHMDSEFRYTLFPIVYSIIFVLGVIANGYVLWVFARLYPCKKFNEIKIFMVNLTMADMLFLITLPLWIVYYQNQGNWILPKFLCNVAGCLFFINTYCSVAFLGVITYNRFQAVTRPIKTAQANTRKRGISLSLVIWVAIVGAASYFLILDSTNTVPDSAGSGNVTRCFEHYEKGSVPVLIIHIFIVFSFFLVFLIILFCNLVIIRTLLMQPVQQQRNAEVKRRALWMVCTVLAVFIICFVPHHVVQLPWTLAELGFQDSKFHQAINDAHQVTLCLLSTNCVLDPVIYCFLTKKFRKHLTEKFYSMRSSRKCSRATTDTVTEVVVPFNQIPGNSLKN

As to `Cc1nnc2n1-c1sc3c(c1C(c1ccccc1Cl)=NC2C)CC(C(=O)N1CCOCC1)C3` (single isomer, unassigned; (+)) [(+) 9dB], the Ki under setting [1] was found to be 3000 nM.
`Cc1nnc2n1-c1sc3c(c1C(c1ccccc1Cl)=NC2C)CC(C(=O)N1CCOCC1)C3` (single isomer, unassigned; (+)) [(+) 9dA]: the Ki under setting [1] was found to be 400 nM.
For `Cc1nnc2n1-c1sc(CCC(=O)N3CCOCC3)cc1C(c1ccccc1Cl)=NC2C` (single isomer, unassigned) [IB, 2-(Morpholinylcarbonylethyl)-4-(2-chlorphenyl)-6,9-dimethyl-6H-thieno(3,2-f][1,2,4]triazolo[4,3-a][1,4]diazepin], for the setting “ratio of binding, (-)-form versus (+)-form of Example 1”, the “bindet stärker an den PAF-Rezeptor als die (+)-Form (1A)” value was 35 mal.
For `Cc1nnc2n1-c1sc3c(c1C(c1ccccc1Cl)=NC2C)CC(C(=O)N1CCOCC1)C3` (stereo not shown) [Beispiel 9d], under “33 : 67 mixture of diastereomers, read-out: [^3H]PAF-Bindung: K”, the Ki was 83 nM.
Regarding `Cc1nnc2n1-c1sc(CCC(=O)N3CCOCC3)cc1C(c1ccccc1Cl)=NC2C` (racemic) [Beispiel 1, 2-(Morpholinylcarbonylethyl)-4-(2-chlorphenyl)-6,9-dimethyl-6H-thieno(3,2-f][1,2,4]triazolo[4,3-a][1,4]diazepin], the Ki (not stated whether IC50 or Ki, read-out: Affinität zum PAF-Rezeptor) was determined as 16 nM.
`Cc1nnc2n1-c1sc3c(c1C(c1ccccc1Cl)=NC2C)CC(C(=O)N1CCOCC1)C3` (single isomer, unassigned; (-)) [(-) 9dA]: the Ki under setting [1] was 70 nM.
As for “3-(Morpholinocarbonyl)-5-(2-chlorphenyl)-7,10-dimethyl-3,4-dihydro-2H,7H-cyclopenta[4,5,thieno-[3,2-f]-[1.2.4]triazolo[4.3-a] [1,4]diazepin [(-) 9dB]”, the Ki under setting [1] was found to be 8 nM.
